Literature values in patent US20230248791A1, “METHODS FOR MANUFACTURING ANGELICA GIGAS NAKAI EXTRACT USING FERMENTATION BACTERIA” (Sooy-K Co., Ltd., priority 2022, published 2023).

What was measured:
cyclooxygenase-2 (COX-2) = target: T1, cyclooxygenase-2 (COX-2) (Homo sapiens, UniProt P35354)
T1 sequence (P35354 18-604): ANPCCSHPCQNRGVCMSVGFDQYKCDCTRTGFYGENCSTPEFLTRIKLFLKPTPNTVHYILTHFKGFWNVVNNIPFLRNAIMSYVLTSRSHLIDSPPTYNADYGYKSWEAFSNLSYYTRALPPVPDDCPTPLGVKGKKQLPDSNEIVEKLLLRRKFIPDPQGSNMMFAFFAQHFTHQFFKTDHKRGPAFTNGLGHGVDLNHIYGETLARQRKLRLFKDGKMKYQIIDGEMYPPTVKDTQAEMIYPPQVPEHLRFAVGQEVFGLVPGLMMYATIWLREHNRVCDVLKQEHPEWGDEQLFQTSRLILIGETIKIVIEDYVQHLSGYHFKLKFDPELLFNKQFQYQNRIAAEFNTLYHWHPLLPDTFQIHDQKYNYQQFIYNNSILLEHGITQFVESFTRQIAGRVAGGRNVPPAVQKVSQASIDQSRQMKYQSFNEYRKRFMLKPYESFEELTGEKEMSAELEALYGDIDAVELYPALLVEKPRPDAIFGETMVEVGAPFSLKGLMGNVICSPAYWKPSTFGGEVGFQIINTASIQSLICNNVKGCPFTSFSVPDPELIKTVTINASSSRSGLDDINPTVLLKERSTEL

[1] = test system: microphthalmia-associated transcription factors (MITFs); conditions: via PKA/CREB, p38/ERK MARK, PI3K/Akt/GSK-3β
[2] = test system: ex vivo 3D human skin model

SMILES: CC(C)=CC(=O)OC1Cc2cc3ccc(=O)oc3cc2OC1(C)C (stereo not shown) [decursin, 3-methyl-2-butenoic acid 2,2-dimethyl-8-oxo-3,4-dihydro-2H,8H-pyrano[3,2-g]chromen-3-yl ester]
- effect on COX-2 (anti-inflammatory mechanism) (cyclooxygenase-2 (COX-2)): inhibiting cyclooxygenase-2 (COX-2)
- effect on MITFs, major transcription factor in melanin synthesis [1]: inhibit
- UVA/UVB-induced skin damage and skin aging (human dermal fibroblast): inhibits UVA/UVB-induced skin damage and skin aging
- melanin synthesis [2]: prevents melanin synthesis
